Data: US5654139A (The United States of America as represented by the …, priority 1994, dated 1997)

Key:
human 5-HT2Ccys receptor = biological target: T1, human 5-HT2Ccys receptor (Homo sapiens, UniProt P28335); test: Two-electrode voltage-clamp recording of 5-HT-activated currents in Xenopus oocytes expressing 5-HT2Ccys; assay type: cell-based
T1 construct: consisting of the entire coding region of the 5-HT2C receptor; expressed in transfected cells; host or cells: Xenopus laevis oocytes injected with cRNA
T1 sequence (P28335 33-458): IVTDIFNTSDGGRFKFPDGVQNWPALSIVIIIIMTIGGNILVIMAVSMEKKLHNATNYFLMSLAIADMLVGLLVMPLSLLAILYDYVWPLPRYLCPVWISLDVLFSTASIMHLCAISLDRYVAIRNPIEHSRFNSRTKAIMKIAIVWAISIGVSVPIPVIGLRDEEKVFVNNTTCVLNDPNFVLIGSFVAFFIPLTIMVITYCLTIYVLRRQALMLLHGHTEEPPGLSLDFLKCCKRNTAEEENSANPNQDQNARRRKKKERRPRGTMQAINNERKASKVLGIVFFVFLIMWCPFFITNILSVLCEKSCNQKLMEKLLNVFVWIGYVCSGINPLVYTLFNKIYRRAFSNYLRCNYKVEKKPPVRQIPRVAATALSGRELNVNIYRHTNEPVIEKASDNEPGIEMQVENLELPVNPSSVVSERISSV

human 5-HT2Cser receptor = biological target: T2, human 5-HT2Cser receptor (Homo sapiens, UniProt P28335); test: Two-electrode voltage-clamp recording of 5-HT-activated currents in Xenopus oocytes expressing 5-HT2Cser; assay type: cell-based
T2 construct: consisting of the entire coding region of the 5-HT2C receptor; expressed in transfected cells; host or cells: Xenopus laevis oocytes injected with cRNA
T2 sequence (P28335 33-458): T1 sequence (P28335 33-458)

[1] = 1 μM PPRZ, voltage-clamp at -70 mV

Cl.c1ccc2c(N3CCNCC3)cccc2c1 [PPRZ, 1-(1-naphthyl) piperazine HCL]
effect on currents activated by 10 nM 5-HT (human 5-HT2Ccys receptor; [1]): suppressed | reversibility of the effect of PPRZ on 5-HT-activated response (human 5-HT2Ccys receptor; after a 20 min wash): reversible | effect on currents activated by 10 nM 5-HT (human 5-HT2Cser receptor; [1]): suppressed | reversibility of the effect of PPRZ on 5-HT-activated response (human 5-HT2Cser receptor; after a 20 min wash): reversible
